Data published in patent publication US5853748A, “Pharmaceutical compositions” (priority 1994, dated 1998).
Read-outs that look alike come from different tables or passages of the source.

How the values were obtained:
[1] = for pH: water
Excerpt: (§1) The amount of agent necessary to adjust the pH to within the range contemplated is difficult to determine directly because the intestinal pH can vary between 5 to 7, and its aqueous content can vary, as can its intrinsic buffering capacity, which acts to maintain a low pH. Consequently considerations aimed at determining the appropriate quantity of agent controlling pH need to take into account a "worst-case" scenario. An indication may be obtained by observing the pH achieved upon adding a potential pH-adjusting agent to a 50 mM solution of MES (morpholino ethane sulphonic acid) adjusted to pH 6.0.
A 0.1M solution of sodium bicarbonate in distilled water was prepared (buffer solution). Similar 0.1M solutions of sodium acetate, sodium borate and sodium carbonate in distilled water were also prepared. These are also referred to in the examples as buffers.

[2] = for pH: MES
Excerpt: as §1

Caco-2 cells [3] = assay: in vitro
Protocol: (§2) A neutral red stock solution was prepared at concentration of 0.5 mg/ml in DMEM (Dulbecco's Modified Eagle Medium) (pH 4.5) which was then diluted 1:10 with TCM (Tissue Culture Medium) or Hanks Balanced Salt Solution (HBSS) before use.
(§3) Test solutions were prepared containing various concentrations of a bile salt in either HBSS or in one of the 0.1M buffer solution. The following bile salts were tested:
(§4) Test plates were set up by aliquotting 200 μl of a Caco-2 cell suspension containing 1×10^5 cells/ml into each well of a 96-well microtitre plate. The outermost wells were filled with 200 μl saline alone, to counteract the effects of evaporation. The cells were incubated in high glucose Dulbecco's modified eagles medium (DMEM) tissue culture medium (TCM) at […], 5% CO2 in air, for 8 days, with feeding where necessary. The cells were then used for performance of either an initial insult or a recovery study.
(§5) B. Recovery from Toxic Insult
(§6) Neutral red stain is actively taken up by viable cells and non-viable cells will not stain. Cells with increased cell membrane permeability will have a reduced stain content. […] A 2-hour exposure period is used together with a 3-hour recovery period in optimal growth material during which stain is taken up. The following protocol was followed:
(§7) TCM was removed from each well and replaced with 150 μl of the appropriate buffer.
(§8) Buffer was removed from wells in column 2 and replaced with 150 μl of test solutions at the highest concentration.
(§9) 150 μof test solutions was added to each of wells in column 3, mixed gently by aspirating repeatedly, and 150 μl transferred to wells in column 4. This process was repeated down the plate to obtain two-fold serial dilutions of test material along each row. One row on each plate was allocated to HBSS as a control, and one row for a buffer control if necessary. The cells were incubated for 2 hours at 37° C. in CO2.
(§10) The supernatant liquid was then removed from cell monolayers in each well and replaced with 200 μl of stain.
(§11) The plates were incubated for 3 hours at 37° C., 5% CO2. […]

Caco-2 cells [4] = assay: in vitro; remark: listed apart in the source
Protocol: as §3
(§12) A MTT stock solution was prepared at a concentration of 5 mg/ml in distilled water, which was then diluted 1:10 with TCM before use.
(§13) Test plates were set up by aliquotting 200 μl of a Caco-2 cell suspension containing 1×10^5 cells/ml into wells of a 96-well microtitre plate. The outermost wells on each plate were left blank, and filled with 200 μl saline, to counteract the effects of evaporation. The cells were is incubated in high glucose DMEM tissue culture medium (TCM) at 37° C., 5% CO2 in air, for 8 days, with feeding when necessary.
(§14) MTT is a tetrazolium salt which is converted by mitochondrial dehydrogenases in viable cells to form an insoluble purple crystal. Dead cells would not effect this conversion. Crystal formation can be quantified colorimetrically and used to asses mitochondrial activity and therefore cell viability. The preparation of MTT stock solution, test solutions and buffer solution is described above.
(§15) In this procedure, cells are first incubated with test materials and then incubated with MTT and measurements are made to determine the extent to which incubation with test materials has altered the mitochondrial activity of the cells. A two hour exposure period is used together with a three hour recovery period during which time staining is conducted.
(§16) TCM was removed from each well and replaced with 150 Al of the appropriate buffer.
as §8
(§17) 150 μl of test solutions was added to each of wells in column 3, mixed gently by aspirating repeatedly, and 150 μl transferred to wells in column 4. This process was repeated down the plate to obtain two-fold serial dilutions of test material along each row. […]
(§18) Absorbances were measured on a plate reader as the difference between 550 and 650 nm, and readings compared with buffer controls to assess change in mitochondrial activity. […]

[5] = cited from earlier work
[6] = sodium cholate (Kojima et al); cited from earlier work
in vitro [7] = settings: human, hbss
Protocol: as §2, §3
as §4, with “study. […]” for “study.”
Neutral red stain is actively taken up by viable cells. Cells with more permeable membranes will lose stain into the bathing medium and thus cell membrane permeability can be directly assessed after exposure to the test material by quantifying the stain remaining in the cell. […]
In order to quantify the amount of stain remaining in the cells, absorbances were measured on a plate reader at 550 nm, and readings compared with buffer controls to assess leakage of the stain from the cells. […]

in vitro [8] = settings: human, hbss; remark: listed apart in the source
Protocol: as §2, §3, §4, §5, §6, §7, §8, §9, §10, §11

in vitro [9] = settings: human, hbss; remark: listed apart in the source
Protocol: as §3, §12, §13, §14, §15, §16, §8, §17, §18

[10] = at the pH values contemplated (7.5 to 9); cited from earlier work
[11] = In vivo efficacy study, salmon calcitonin, intrajejunal, pigs (plasma calcium); set-up: species or system Pigs (large white×large white/landrace); settings: […] iu sCT intrajejunal in 2 ml, with 25 or 50 mg sodium chenodeoxy cholate, pH 7.5 or 6.5
Protocol: Dosing of salmon calcitonin (sCT) was administered by instillation via the indwelling cannula into the jejunum, followed by flushing with warm sterile water. 8 ml blood samples were removed at various times before and after dosing, and divided into two portions. One portion was allowed to clot at room temperature, and the serum removed and stored at -20° C. until ready for use. The other portion was transferred to heparinised tubes to which 4000 kiu aprotinin was added, and the plasma decanted after centrifugation and stored at -20° C. Serum calcium levels were measured colorimetrically after complexation with the calcium-sensitive chelating agent arsenazo III.
Nine animals were used in the study, and formulations were administered on three separate days, each separated by at least one day, on a random three-way crossover basis, so that all pigs received all three treatments.

## O=C(O)O [Bicarbonate, sodium bicarbonate]
[1]; 0.002 M
  pH: 8.86
[1]; 0.004 M
  pH: 8.67
[1]; 0.008 M
  pH: 8.63
[1]; 0.016 M
  pH: 8.57
[1]; 0.031 M
  pH: 8.55
[1]; 0.062 M
  pH: 8.49
[1]; 0.1M, confirmed at the end of each of the experiments
  pH of 0.1M solution: ~8.0
[1]; 0.500 M
  pH: 8.16
[1]; 1.000 M
  pH: 8.02
[1]; saturated (<2M) in water
  pH of saturated solution: 8.01
[2]; 0.002 M
  pH: 6.42
[2]; 0.004 M
  pH: 6.58
[2]; 0.008 M
  pH: 6.86
[2]; 0.016 M
  pH: 7.14
[2]; 0.031 M
  pH: 7.40
[2]; 0.062 M
  pH: 7.68
[2]; 0.500 M
  pH: 8.05
[2]; 1.000 M
  pH: 7.96
[2]; about 0.045M (about 40 mg sodium bicarbonate in 10 ml)
  pH in the gut: about 7.5

## C[C@H](CCC(=O)O)[C@H]1CC[C@H]2[C@@H]3[C@H](O)C[C@@H]4C[C@H](O)CC[C@]4(C)[C@H]3CC[C@]12C [Chenodeoxycholate, sodium chenodeoxycholate]
Caco-2 cells [3]
  percentage release of stain (FIG. 4): much less stain is released from cells which have been incubated at pH above 7.5
Caco-2 cells [4]
  percentage reduction in mitochondrial activity (FIG. 5): a marked reduction in toxicity is achieved under conditions of elevated pH

## C[C@H](CCC(=O)O)[C@H]1CC[C@H]2[C@@H]3[C@H](O)C[C@@H]4C[C@H](O)CC[C@]4(C)[C@H]3C[C@H](O)[C@]12C [Cholate, sodium cholate]
[5]; sodium cholate (Kojima et al)
  absorption of various substances: capable of increasing the absorption of various substances
[6]
  release of cell membrane components: accelerated

## C[C@H](CCC(=O)NCC(=O)O)[C@H]1CC[C@H]2[C@@H]3[C@H](O)C[C@@H]4C[C@H](O)CC[C@]4(C)[C@H]3C[C@H](O)[C@]12C [Glycocholate, sodium glycocholate]
[5]; in combination with taurocholate or glycocholate (Kakemi et al)
  bioavailability of various substances: could be increased

## C[C@H](CCC(=O)NCC(=O)O)[C@H]1CC[C@H]2[C@@H]3CC[C@@H]4C[C@H](O)CC[C@]4(C)[C@H]3C[C@H](O)[C@]12C [Glycodeoxycholate, sodium glycodeoxycholate]
In vitro [7]
  MNTC at 2 h: 313 µg/mL
In vitro [8]
  MNTC at 2 h: 313 µg/mL
In vitro [9]
  MNTC at 2 h: 313 µg/mL

## C[C@H](CCC(=O)NCCS(=O)(=O)O)[C@H]1CC[C@H]2[C@@H]3CC[C@@H]4C[C@H](O)CC[C@]4(C)[C@H]3C[C@H](O)[C@]12C [Taurodeoxycholate, sodium taurodeoxycholate]
In vitro [7]
  MNTC at 2 h: 313 µg/mL
In vitro [8]
  MNTC at 2 h: 313 µg/mL
In vitro [9]
  MNTC at 2 h: 313 µg/mL

## insulin
[10]
  solubility: poorly soluble

## salmon calcitonin [sCT]
[11]
  efficacy of bile salts in enhancing uptake of calcitonin (plasma calcium concentration with time, FIG. 6): dependent on the concentration of bile salt present, and the pH at which it is administered

## somatostatin
[5]; with a cholanic acid derivative such as chenodeoxycholic acid or ursodeoxycholic acid (GB-A-2244918)
  bioavailability of somatostatin: can be improved
